Test results: patent publication US20230322717A1, “SOLID FORM OF PYRAZINE SUBSTITUTED NICOTINAMIDE, AND PREPARATION AND USE THEREOF” (Shenzhen TargetRx, Inc., priority 2020, published 2023)
≈ marks a conversion by molar mass, not a printed value. Blank lines part the entries; values can stand above or below the compound they belong to.

Experiments:
Format in all cases: physicochemical
[1] = Dissolution study of compound A tablets (solubilizer and glidant study)
[2] = Solubility study of the starting material (the crystal form I of compound A) in different solvents; conditions: in tetrahydrofuran, acetone, 2-butanone, acetonitrile and ethyl acetate
Procedure: About 2 mg of the starting material was weighed and added into a sample bottle, and different solvents were added respectively, until the starting material was dissolved.

[3] = Solubility study in SGF, FaSSIF and FeSSIF (HPLC of filtrate, XRPD of solid)
Procedure: The solubilities of the crystal form I of compound A and the crystal form I of compound A p-toluenesulfonate in SGF (simulated gastric fluid), FaSSIF (fasted state simulated intestinal fluid) and FeSSIF (fed state simulated intestinal fluid) were studied.
The solubilities of samples in SGF, FaSSIF and FeSSIF at 37° C. for 24 hours were determined. 40 mg of the sample was placed in a sample bottle, and 1.5 mL of solvent was added. The mixture was mixed well, and shaken on a shaker at 200 rpm for 24 hours. The suspension was filtered at 0.5, 2 and 24 hours. The filtrate was analyzed by HPLC, and the solid was tested by XRPD.

[4] = Heating of the crystal form by DSC (solvent removal); conditions: heated to 150° C. by DSC
Procedure: The instrument model for differential scanning calorimetry analysis was DSC Q200 or Discovery DSC 250 (TA, USA). Samples were accurately weighed and placed in a punctured sample pot for DSC, and the exact mass of the sample was recorded. The samples were heated to the final temperature (e.g. 300° C. or 350° C.) at a ramp rate of 10° C./min.
The collected crystal form I of compound A was subjected to DSC analysis by General method 4. […] The crystal form I of compound A was heated to 150° C. by DSC and then the solvent was removed.

[5] = Cooling crystallization: solubility of the crystal form I of compound A in heated solvents; conditions: organic solvent or mixture, thermodynamic from solid
Procedure: About 30 mg of the crystal form I of compound A was added to different solvents and heated until dissolved. The resulting solution was then slowly cooled to room temperature. PLM and XRPD tests were performed on the resulting solid crystal forms.

[6] = Dynamic moisture adsorption and desorption analysis (DVS)
Procedure: The instrument model used for dynamic moisture adsorption and desorption analysis was IGA Sorp (Hidentity Isochema). The samples were measured in a gradient mode with a moisture range of 0% to 90%, wherein the humidity increment of each gradient was 10%.

[7] = Stability study of the crystal form I of compound A and the crystal form I of compound A p-toluenesulfonate (HPLC, XRPD); conditions: 7 days at 40° C./75% RH and 60° C.
Procedure: A certain amount of samples of the crystal form I of compound A and the crystal form I of compound A p-toluenesulfonate (Batch No.: PTSA-A1) were placed in a stability test chamber, and kept at 40° C./75%RH and 60° C. for 7 days, respectively. The samples were tested by HPLC and XRPD at various time points.

[8] = Grinding research of crystal forms (XRPD before and after grinding); conditions: ground in a mortar at room temperature
From the text: The solid XRPDs before and after grinding were compared.

[9] = Stability study of the crystal form VI of compound A (high temperature, high humidity, light)

solid form / crystallinity after grinding (XRPD) ([8]; listed as crystal form III): transformed into amorphous forms
Compound: O=C(Nc1ccc(OC(F)(F)Cl)cc1)c1cnc(N2CC[C@@H](F)C2)c(-c2cnccn2)c1 [crystal form III of compound A, (R)-N-(4-(chlorodifluoromethoxy)phenyl)-6-(3-fluoropyrrolidin-1-yl)-5-(pyrazin-2-yl)nicotinamide]

water absorption ([6]; 0-80%RH): 1.1852% | water absorption ([6]; 0-90%RH): 1.7452% | water absorption ([6]; 10%RH): 0.1389% | crystal form after DVS test (XRPD) ([6]; before and after DVS test): not changed | stability (appearance, crystal form and related substances) ([9]; 10 days under the condition of light): stable | stability (appearance, crystal form and related substances) ([9]; 30 days, 60° C., 25° C./92.5%RH, 40° C./75%RH, and light (visible 4500 Lux, near-UV 85µw/cm^2)): stable | crystal form after stability test (XRPD) ([9]; high temperature, high humidity, high temperature and high humidity, light): not changed | solid form / crystallinity after grinding (XRPD) [8]: slightly decreased
Compound: O=C(Nc1ccc(OC(F)(F)Cl)cc1)c1cnc(N2CC[C@@H](F)C2)c(-c2cnccn2)c1 [crystal form VI of compound A, (R)-N-(4-(chlorodifluoromethoxy)phenyl)-6-(3-fluoropyrrolidin-1-yl)-5-(pyrazin-2-yl)nicotinamide]

solid form / crystallinity after grinding (XRPD) ([8]; listed as crystal form VII): transformed into amorphous forms
Compound: O=C(Nc1ccc(OC(F)(F)Cl)cc1)c1cnc(N2CC[C@@H](F)C2)c(-c2cnccn2)c1 [crystal form VII of compound A, (R)-N-(4-(chlorodifluoromethoxy)phenyl)-6-(3-fluoropyrrolidin-1-yl)-5-(pyrazin-2-yl)nicotinamide]

More lines, now with the values behind:

Compound: O=C(Nc1ccc(OC(F)(F)Cl)cc1)c1cnc(N2CC[C@@H](F)C2)c(-c2cnccn2)c1 [compound A, (R)-N-(4-(chlorodifluoromethoxy)phenyl)-6-(3-fluoropyrrolidin-1-yl)-5-(pyrazin-2-yl)nicotinamide]
dissolution of compound A in the formulation ([1]; colloidal silica 200 (glidant) added): improved | dissolution of compound A in the formulation ([1]; increasing amount of sodium lauryl sulfate (solubilizer)): decreased

Compound: O=C(Nc1ccc(OC(F)(F)Cl)cc1)c1cnc(N2CC[C@@H](F)C2)c(-c2cnccn2)c1 [crystal form I of compound A, (R)-N-(4-(chlorodifluoromethoxy)phenyl)-6-(3-fluoropyrrolidin-1-yl)-5-(pyrazin-2-yl)nicotinamide]
solubility in solvents (in words) [2]: good solubility | solubility compared with the other form ([3]; FeSSIF vehicle, 0.5 and 2 hours, 37° C.): higher solubility than that of the p-toluenesulfonate | crystal form of the undissolved solid (XRPD) ([3]; SGF, FaSSIF and FeSSIF for 2 hours): changed | dependence of solubility on pH ([3]; SGF, FaSSIF, FeSSIF, 37° C.): affected by pH value | crystal form after heating and solvent removal [4]: changed into the crystal form VI | Solubility ([5]; ACN, became clear at 50° C.): 298 mg/mL (≈ 642 mM) | Solubility ([5]; Acetone, became clear at 50° C.): 150 mg/mL (≈ 324 mM) | Solubility ([5]; Isobutanol, became clear at 70° C.): 10.1 mg/mL (≈ 21.8 mM) | Solubility ([5]; MeOH, became clear at 50° C.): 34.1 mg/mL (≈ 73.5 mM) | water absorption ([6]; 0-60%RH): about 0.2% | water absorption ([6]; 0-80%RH): about 0.7% | water absorption ([6]; 0-90%RH): about 1.3% | hygroscopicity (DVS) ([6]; moisture range 0% to 90%): slightly hygroscopic | crystal form stability (XRPD) [7]: remained unchanged
